Here are results for 4 compounds from article PMC12748266, “Testing antimicrobial peptides inhibiting protein synthesis in living E. coli and K. pneumoniae using bio-orthogonal non-canonical amino-acid tagging” (Frontiers in Microbiology, 2025).

In brackets after ≈: the same amount, converted by molar mass. No end group written: not given here.

One test concerns E. coli ATCC 25922. Nature of the test: Post-antibiotic effect (PAE), growth kinetics after washout. Type of test: cell-based, Escherichia coli. The note with it: 30 min treatment at MIC. The procedure:
An overnight culture of E. coli ATCC 25922, prepared as described above, was diluted to a final concentration of 5 × 10^6 CFU/mL and then incubated at 37 °C for 30 min in the presence or absence of each peptide or antibiotic at various concentrations, with a final volume of 1 mL. To measure the post-antibiotic effect (PAE) of antimicrobials, the compounds were removed from the supernatant by centrifugation (16,000 × g for 5 min) and bacteria were washed and resuspended in 1 mL of fresh supplemented MHB medium, to promote faster growth visible as increased absorbance. 200 μL of each sample was then transferred to a 96-well round-bottom microplate (Sarstedt, Milan, Italy), which was then placed in a Nanoquant Infinite-M200Pro plate reader with stable temperature at 37 °C. Each sample was surrounded by water-filled wells to reduce its own evaporation. Optical density at 600 nm was then recorded for each sample every hour for up to 18 h. PAE was calculated according to [Holfeld et al. (2018)] as the difference between the time needed for a cell culture incubated with an antibiotic substance to reach half-maximum absorbance of the control culture and the time that the control culture needed to reach half-maximum absorbance of the stationary phase. According to this definition, the PAE of each compound (expressed as time) was calculated based on the OD₆₀₀ value of its respective replicate, which corresponded to half of the maximum absorbance reached by the control culture in the stationary phase (at 18 h). The mean PAE values (PAE in hours) of each compound, were obtained by averaging the times from the three independent experiments.

Test [1] concerns K. pneumoniae ATCC 700603. Nature of the test: BONCAT: HPG incorporation into newly synthesized proteins, flow cytometry. The note with it: compound at MIC; for Fluorescence Intensity (% of Control): 10 min pre-incubation then 30 min HPG, untreated = 100%, mean, n ≥ 3. The class given is cell-based, Klebsiella pneumoniae. How it is done: We used a modified protocol from [Lindivat et al. (2020)]. Briefly, overnight cultures of E. coli ATCC 25922 or K. pneumoniae ATCC 700603, prepared as described above, were diluted to a final concentration of 5×10^6 CFU/mL and allowed to adjust for 30 min at 37 °C. The culture was then incubated at 37 °C in the dark for 10 or 30 min in the presence or absence of each peptide or antibiotic at various concentrations, with a final volume of 1 mL. At this point, only in certain specified experimental assays, the compounds were removed from the supernatant by centrifugation (16,000 × g for 5 min) and bacteria were washed and resuspended in fresh supplemented M9 medium. Then, 32 μL of a 500 μM homopropargylglycine (HPG) solution were added to each sample, resulting in a final concentration of 16 μM in a finale volume of 1 mL. Also included in each assay were two untreated controls containing only bacteria and bacteria treated with 16 μM HPG alone, respectively. All samples were then incubated at 37 °C in the dark for 30 min. After incubation, samples were washed once with 1X filtered Phosphate Buffered Saline (PBS) (centrifuged at 16,000 x g for 5 min) and resuspended in PBS. After washing, samples were fixed with formaldehyde (Sigma Aldrich, USA) to a final concentration of 3% in 1 mL for 1 h at 25 °C. Subsequently, the samples were centrifuged at 16,000 x g for 5 min and resuspended in 1 mL of PBS. If not analysed immediately, the fixed samples were stored at 4 °C prior to performing the click chemistry reaction. Samples were centrifugated at 16,000 x g for 5 min and bacteria cells were dehydrated by ethanol that was added sequentially to achieve a final concentration of 50% (v/v) (3 min of incubation), 80% (v/v) (3 min of incubation), and 95% (v/v) (3 min of incubation). After dehydration, the samples were centrifugated (16,000 × g, 5 min) and resuspended in PBS. For cell analysis by SDS-PAGE, the following variations were implemented: bacterial cells were diluted in supplemented M9 medium to a final density of ~ 1 × 10^9 CFU/mL, and HPG was added to the samples at a final concentration of 160 μM. Bacteria were incubated with HPG for 0, 15, 30, 60, or 120 min at 37 °C in the dark.
The click reaction was carried out according to [Rostovtsev et al. (2002)]. 15 μL of a pre-mix solution (prepared as described above) were added to each sample containing fixed bacteria that had incorporated HPG (30 μL of pre-mix solution in case of samples prepared for SDS-PAGE analysis), resulting in the following final concentrations in each sample: 0.1 mM copper sulfate, 0.5 mM Tris (3-hydroxypropyltriazolylmethyl)amine (THPTA), and 2.5 μM Alexa Fluor azide 488. Additionally, 50 μL of freshly prepared 100 mM sodium ascorbate and 50 μL of 100 mM aminoguanidine were added (100 μL in case of samples prepared for SDS-PAGE analysis), bringing the final volume to 1 mL. The samples were gently inverted once to mix and incubated for 30 min in the dark at 25 °C. […]
An overnight culture of E. coli ATCC 25922, or of K. pneumoniae ATCC 700603, prepared as described above, was diluted to a final concentration of 5 × 10^6 CFU/mL and allowed to adjust for 30 min at 37 °C under shaking. Membrane permeabilization of bacteria was then assessed by incubating bacteria at 37 °C, in a final volume of 1 mL, with varying concentrations of each peptide or antibiotic used for the BONCAT assay. […] The fluorescence of untreated cells was used to establish the gating for positive PI-stained cells. […]
For orientation: Flow cytometry measures light scatter and fluorescence of single cells or particles in a stream.

Test [2] deals with K. pneumoniae ATCC 700603. The experiment in a line: microbe, parasite or virus in culture. The class given is cell-based, Klebsiella pneumoniae. As to conditions: for MIC: 18 h, 37 °C, mode of at least three experiments; for MIC for K. pneumoniae relative to E. coli: supplemented M9, 5 × 10^6 cells/mL. The procedure:
[…] […] Serially two-fold dilution (1:1) were performed across subsequent wells to a final volume of 50 μL. […] […] The plates were sealed with parafilm to minimize evaporation and incubated at 37 °C for 18 h. The minimum inhibitory concentration (MIC) was visually determined as the lowest peptide concentration in a well with no visible bacterial growth. Data are reported as the mode of at least three independent experiments.

The mark [3] stands for this setting: OD600 every hour for 18 h in MHB, mean ± SD, n = 3.

In the case of `O=C(N[C@H](CO)[C@H](O)c1ccc([N+](=O)[O-])cc1)C(Cl)Cl` [CHL, Chloramphenicol], the figures for the “PAE” value in the test with E. coli ATCC 25922 and with E. coli ATCC 25922 (setting [3]) were “about half an hour” and 0.6 ± 1.2 h, respectively.

Turning to `CO[C@H]1/C=C/O[C@@]2(C)Oc3c(C)c(O)c4c(O)c(c(/C=N/N5CCN(C)CC5)c(O)c4c3C2=O)NC(=O)/C(C)=C\C=C\[C@H](C)[C@H](O)[C@@H](C)[C@@H](O)[C@@H](C)[C@H](OC(C)=O)[C@@H]1C` [RIF, Rifampicin], the Reduction in fluorescence entry in test [1] (10 min + 30 min HPG) is “did not affect fluorescence”. Further, the “Fluorescence Intensity (% of Control)” value in test [1] was 87 % of Control. Moreover, in test [2] (Klebsiella pneumoniae, ATCC700603, supplemented M9 medium, 5 × 10^6 CFU/mL, visual), the MIC is 16 µM (≈ 13.2 µg/mL). In the test on E. coli ATCC 25922 (setting [3]), this compound showed a PAE of 1.6 ± 1.1 h.

Consider RRIRPRPPRLPRPRPR [Bac7(1–16)], for which the “Fluorescence Intensity (% of Control)” value in test [1] is 18 % of Control. Also, the MIC came to 4 µM in test [2] (Mueller Hinton, 2,5x10^5 CFU/mL) and 4 µM in test [2] (supplemented M9 medium, 5 × 10^6 CFU/mL, visual). Besides, the “MIC for K. pneumoniae relative to E. coli” value in test [2] was determined as 4 fold. Further, in the test with E. coli ATCC 25922 (setting [3]), the PAE came to 1.7 ± 0.9 h.

As for “RRIRPRPPRLPRPRPRPLPFPRPGPRPIPRPLPFP [Bac7(1–35)]”, the “Fluorescence Intensity (% of Control)” value in test [1] is recorded as 6 % of Control. For the same compound, the “MIC for K. pneumoniae relative to E. coli” value in test [2] stood at 4 fold. For the same compound, the “PAE” value was determined as 3 h with E. coli ATCC 25922 and 2.9 ± 0.5 h in the test on E. coli ATCC 25922 (setting [3]).
